Numbering of substitutions follows the chain as printed. Where two headings read alike, the source gives them in different places.
Key:
Assay type in all cases: cell-based
[1] = target: T1, wild-type Androgen Receptor (AR-wt) (Homo sapiens, UniProt P10275); test: LNCaP-AR-wt AG reporter assay (ARE firefly luciferase, agonist mode); conditions: for Emax: read-out: LNCaP-AR-wt AG MAX % Stim
T1 construct: expressed in transfected cells; host or cells: LNCaP (LNCaP AR (cs))
T1 sequence (P10275 1-920): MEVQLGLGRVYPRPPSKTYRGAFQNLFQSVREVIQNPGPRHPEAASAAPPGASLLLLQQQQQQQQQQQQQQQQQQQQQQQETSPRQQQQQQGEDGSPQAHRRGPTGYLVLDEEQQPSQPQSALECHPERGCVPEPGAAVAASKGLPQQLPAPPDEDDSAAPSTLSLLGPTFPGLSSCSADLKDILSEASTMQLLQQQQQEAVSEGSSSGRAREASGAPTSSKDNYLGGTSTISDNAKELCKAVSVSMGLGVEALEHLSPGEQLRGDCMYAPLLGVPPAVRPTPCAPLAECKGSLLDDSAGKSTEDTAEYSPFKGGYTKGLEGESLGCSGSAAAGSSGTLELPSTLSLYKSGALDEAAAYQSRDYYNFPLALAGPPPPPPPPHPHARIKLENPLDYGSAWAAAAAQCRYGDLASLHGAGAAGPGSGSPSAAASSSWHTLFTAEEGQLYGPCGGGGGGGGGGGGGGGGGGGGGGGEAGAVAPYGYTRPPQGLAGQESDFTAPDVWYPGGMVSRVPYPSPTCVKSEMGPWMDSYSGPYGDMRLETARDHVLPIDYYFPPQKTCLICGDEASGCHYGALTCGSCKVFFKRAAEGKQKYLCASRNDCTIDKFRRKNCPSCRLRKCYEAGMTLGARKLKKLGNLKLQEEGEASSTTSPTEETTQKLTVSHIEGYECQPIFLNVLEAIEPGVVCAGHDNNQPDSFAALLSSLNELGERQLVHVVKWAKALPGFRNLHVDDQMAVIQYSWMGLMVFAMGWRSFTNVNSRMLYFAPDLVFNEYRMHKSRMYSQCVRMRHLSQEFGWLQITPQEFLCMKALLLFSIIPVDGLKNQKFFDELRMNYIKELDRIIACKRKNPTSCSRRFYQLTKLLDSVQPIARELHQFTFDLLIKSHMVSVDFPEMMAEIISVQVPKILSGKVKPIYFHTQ
Method: (§1) A stable pooled-population cell line was generated using puromycin (Life Technologies) selection at 1:10,000 v/v. The protocol below was used for both cell lines and for testing of the compounds of Formula (I) of the present invention.
(§2) LNCaP cells were grown to about 80% confluence, media removed and cells rinsed in Hank's balanced salt solution prior to separation from the plate with 0.05% Trypsin EDTA. Cells were lifted and trypsin negated in complete CSS (charcoal stripped serum) culture media. […] Agonist challenge was at 400 pM for WT assay and 600 pM for F876L assay. Plates containing cells and compounds herein were incubated for a further 20-24 hours at 37° C., 5% CO2 before addition of 40 μL/well of Steady-Glo Luciferase Assay System Reagent (Promega# E2520). After 1 h, plates were read for luminescence on a BMG Pherastar.
(§3) EC/IC50 calculations were achieved utilizing calculated RLU data and data fitting macros. Data were fit using least-squares methods to the following formula: […]

[2] = target: T2, F876L mutant Androgen Receptor (AR-F876L) (Homo sapiens, UniProt P10275, F877L); test: LNCaP-AR-F876L ANT reporter assay (ARE firefly luciferase, antagonist mode); conditions: for Emax: read-out: LNCaP-AR-F876L ANT MAX % Inh; for IC50: read-out: LNCaP-AR-F876L ANT pIC50 (converted)
T2 construct: expressed in transfected cells; host or cells: LNCaP (LNCaP F876L)
T2 sequence (P10275 1-920 F877L): T1 sequence (P10275 1-920) with F877L
Method: as §1, §2, §3

[3] = target: T2, F876L mutant Androgen Receptor (AR-F876L); test: LNCaP-AR-F876L AG reporter assay (ARE firefly luciferase, agonist mode); conditions: for Emax: read-out: LNCaP-AR-F876L AG MAX % Stim
Method: as §1, §2, §3

[4] = target: T1, wild-type Androgen Receptor (AR-wt); test: LNCaP-AR-wt ANT reporter assay (ARE firefly luciferase, antagonist mode); conditions: for IC50: antagonist mode, 400 pM R-1881 challenge, −Log10(IC50 [Molar]), read-out: LNCaP-AR-wt ANT pIC50 (converted); for Emax: read-out: LNCaP-AR-wt ANT MAX % Inh
Method: as §1, §2, §3

[5] = agonist mode, −Log10(EC50 [Molar]), read-out: LNCaP-AR-wt AG pEC50 (converted)
[6] = maximum % stimulation (agonist response) over tested concentration range
[7] = maximum % inhibition of R1881 control response over tested concentration range
[8] = agonist mode, −Log10(EC50 [Molar]), read-out: LNCaP-AR-F876L AG pEC50 (converted)

Row | EC50 [1, 5] [µM] | Emax [1, 6] [%] | Emax [2, 7] [%] | IC50 [2] [µM] | EC50 [3, 8] [µM] | Emax [3, 6] [%] | IC50 [4] [µM] | Emax [4, 7] [%] | SMILES | EC50 [1] [µM] | Emax [1] [%] | Emax [2] [%] | EC50 [3] [µM] | Emax [3] [%] | Emax [4] [%]
1 | > 15.1 | -0.1 | 99.9 | 0.295 | > 15.1 | -0.1 | 0.676 | 101 | Cc1cc(N2C(=O)C3(CCC3)N(c3ccc(C(=O)Nc4ccccc4F)c(F)c3)C2=S)cnc1C#N [Cpd 11, 4-[6-(6-cyano-5-methyl-3-pyridyl)-5-oxo-7-thioxo-6,8-diazaspiro[3.4]octan-8-yl]-2-fluoro-N-(2-fluorophenyl)benzamide] |  |  |  |  |  | 
2 | > 15.1 | 0.4 | 101 | 0.229 | > 15.1 | 0.1 | 0.407 | 102 | Cc1cc(N2C(=O)C3(CCC3)N(c3ccc(OC4CCSCC4)cc3)C2=S)cnc1C#N [Cpd 13, 3-methyl-5-[5-oxo-8-(4-tetrahydrothiopyran-4-yloxyphenyl)-7-thioxo-6,8-diazaspiro[3.4]octan-6-yl]pyridine-2-carbonitrile] |  |  |  |  |  | 
3 | > 15.1 | 0 | 99.7 | 0.112 | > 15.1 | -0.1 | 0.0871 | 102 | N#Cc1ncc(N2C(=O)C3(CCC3)N(c3ccc(C(=O)NCCc4ccncc4)c(F)c3)C2=S)cc1C(F)(F)F [Cpd 14, 4-[6-[6-cyano-5-(trifluoromethyl)-3-pyridyl]-5-oxo-7-thioxo-6,8-diazaspiro[3.4]octan-8-yl]-2-fluoro-N-[2-(4-pyridyl)ethyl]benzamide] |  |  |  |  |  | 
4 | > 15.1 | -0.1 | 102 | 0.0468 | > 15.1 | 0 | 0.209 | 103 | N#Cc1ncc(N2C(=O)C3(CCC3)N(c3ccc(C(=O)NCCc4ccccn4)c(F)c3)C2=S)cc1C(F)(F)F [Cpd 15, 4-[6-[6-cyano-5-(trifluoromethyl)-3-pyridyl]-5-oxo-7-thioxo-6,8-diazaspiro[3.4]octan-8-yl]-2-fluoro-N-[2-(2-pyridyl)ethyl]benzamide] |  |  |  |  |  | 
5 | > 15.1 | 0.3 | 98.7 | 0.269 | > 15.1 | 0 | 0.631 | 99.2 | CNC(=O)c1ccc(N2C(=S)N(c3cnc(C#N)c(C)c3)C(=O)C23CCC3)cc1F [Cpd 16, 4-[6-(6-cyano-5-methyl-3-pyridyl)-5-oxo-7-thioxo-6,8-diazaspiro[3.4]octan-8-yl]-2-fluoro-N-methyl-benzamide] |  |  |  |  |  | 
6 | > 15.1 | 1.3 | 95.4 | 0.977 | > 15.1 | 0.2 | 1.32 | 90 | N#Cc1ncc(N2C(=O)C3(CCC3)N(c3cccc(Oc4ccccc4)c3)C2=S)cc1C(F)(F)F [Cpd 20, 5-[5-oxo-8-(3-phenoxyphenyl)-7-thioxo-6,8-diazaspiro[3.4]octan-6-yl]-3-(trifluoromethyl)pyridine-2-carbonitrile] |  |  |  |  |  | 
7 | > 15.1 | -0.2 | 98.6 | 0.389 | > 15.1 | 0.1 | 0.724 | 100 | N#Cc1ncc(N2C(=O)C3(CCC3)N(c3ccc(C(=O)NCC4CCCC4)c(F)c3)C2=S)cc1C(F)(F)F [Cpd 21, 4-[6-[6-cyano-5-(trifluoromethyl)-3-pyridyl]-5-oxo-7-thioxo-6,8-diazaspiro[3.4]octan-8-yl]-N-(cyclopentylmethyl)-2-fluoro-benzamide] |  |  |  |  |  | 

Row | SMILES | EC50 [1, 5] [µM] | Emax [1, 6] [%] | Emax [2, 7] [%] | IC50 [2] [µM] | EC50 [3, 8] [µM] | Emax [3, 6] [%] | IC50 [4] [µM] | Emax [4, 7] [%] | EC50 [1] [µM] | Emax [1] [%] | Emax [2] [%] | EC50 [3] [µM] | Emax [3] [%] | Emax [4] [%]
8 | CNC(=O)c1ccc(N2C(=S)N(c3cnc(C#N)c(C)c3)C(=O)C2(C)C)cc1F [Cpd 12, 4-[3-(6-cyano-5-methyl-3-pyridyl)-5,5-dimethyl-4-oxo-2-thioxo-imidazolidin-1-yl]-2-fluoro-N-methyl-benzamide] |  |  |  | 0.229 |  |  | 1.74 |  | > 15.1 | 0.9 | 98.7 | > 15.1 | -0.3 | 98.4
9 | CC(C)(O)CNC(=O)c1ccc(N2C(=S)N(c3cnc(C#N)c(C(F)(F)F)c3)C(=O)C23CCC3)cc1F [Cpd 17, 4-[6-[6-cyano-5-(trifluoromethyl)-3-pyridyl]-5-oxo-7-thioxo-6,8-diazaspiro[3.4]octan-8-yl]-2-fluoro-N-(2-hydroxy-2-methyl-propyl)benzamide] |  |  |  | 1.1 |  |  | 2.69 |  | > 15.1 | -0.1 | 97.2 | > 15.1 | 0.1 | 95.5
10 | N#Cc1ncc(N2C(=O)C3(CCC3)N(c3ccc4ccccc4c3)C2=S)cc1C(F)(F)F [Cpd 18, 5-[8-(2-naphthyl)-5-oxo-7-thioxo-6,8-diazaspiro[3.4]octan-6-yl]-3-(trifluoromethyl)pyridine-2-carbonitrile] |  |  |  | 0.191 |  |  | 0.204 |  | > 15.1 | -0.2 | 101 | > 15.1 | 0 | 101
11 | CN1CCC(Oc2ccc(N3C(=S)N(c4cnc(C#N)c(C(F)(F)F)c4)C(=O)C3(C)C)cc2)CC1 [Cpd 19, 5-[4,4-dimethyl-3-[4-[(1-methyl-4-piperidyl)oxy]phenyl]-5-oxo-2-thioxo-imidazolidin-1-yl]-3-(trifluoromethyl)pyridine-2-carbonitrile] |  |  |  | 0.525 |  |  | 0.871 |  | > 15.1 | 0.3 | 98.1 | > 15.1 | 0.2 | 99.6

From US20180008587A1, “THIOHYDANTOIN ANDROGEN RECEPTOR ANTAGONISTS FOR THE TREATMENT OF CANCER” (Jaressen Pharmaceutica NV, priority 2016, published 2018)
